Where a name gives a salt, the structure may show the parent alone.
What follows are compounds tested against SSTR5 (Homo sapiens (Human), UniProt P35346) (assay: SSTR5 binding assay). Details: CHO-K1 membranes expressing cloned human SSTR5.
Method: The receptor-ligand binding assays of all 5 subtype of SSTRs were performed with membranes isolated from Chinese hamster ovary (CHO)-K1 cells stably expressing the cloned human somatostatin receptors in 96-well format as previous reported.
The stable cell lines for SSTR1-SSTR5 were developed by stably transfecting with DNA for all five SSTRs using Lipofectamine. […] The assay buffer consisted of 50 mM TrisHCl (pH 7.8) with 1 mM EGTA, […] MgCl2, leupeptin (10 μg/mL), pepstatin (10 μg/mL), bacitracin (200 μg/mL), and aprotinin (0.5 μg/mL). CHO-K1 cell membranes, radiolabeled somatostatin, and unlabeled test compounds were resuspended or diluted in this assay buffer. Unlabeled test compounds were examined over a range of concentrations from 0.01 nM to 10,000 nM.
Compounds exemplified were tested in the SSTR5 binding assay.

Sequence of SSTR5 (P35346 whole entry): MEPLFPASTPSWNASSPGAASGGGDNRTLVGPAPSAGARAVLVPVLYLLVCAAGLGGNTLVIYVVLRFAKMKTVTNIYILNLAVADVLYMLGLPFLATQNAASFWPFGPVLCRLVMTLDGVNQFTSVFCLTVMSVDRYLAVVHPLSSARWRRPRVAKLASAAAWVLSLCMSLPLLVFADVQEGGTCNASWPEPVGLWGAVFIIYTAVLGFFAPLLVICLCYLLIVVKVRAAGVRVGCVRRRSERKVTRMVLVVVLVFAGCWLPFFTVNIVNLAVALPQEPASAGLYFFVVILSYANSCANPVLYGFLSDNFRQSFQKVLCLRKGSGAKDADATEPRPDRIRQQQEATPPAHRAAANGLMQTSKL

Compound | IC50
O=C(O)c1ccc(N2CC3(CCN(Cc4nc(C5CC5)oc4-c4ccc(F)c(Cl)c4)CC3)OC2=O)cc1 [Example 6-31, 4-(8-{[5-(3-Chloro-4-fluorophenyl)-2-cyclopropyl-1,3-oxazol-4-yl]methyl}-2-oxo-1-oxa-3,8-diazaspiro[4.5]dec-3-yl)benzoic acid, TFA salt] | 414 nM
CCOc1cc(CN2CCC3(CC2)CN(c2ccccc2C(=O)O)C(=O)O3)cc(OCC)c1-c1ccc(F)cc1 [Example 3-3, 2-{8-[(2,6-Diethoxy-4′-fluorobiphenyl-4-yl)methyl]-2-oxo-1-oxa-3,8-diazaspiro[4.5]dec-3-yl}benzoic acid, TFA salt] | 229 nM
O=C(O)c1ccc(N2CC3(CCN(Cc4cn(C5CCCCC5)nc4-c4ccc(F)c(F)c4F)CC3)OC2=O)cc1 [Example 1-19, 4-(8-{[1-Cyclohexyl-3-(2,3,4-trifluorophenyl)-1H-pyrazol-4-yl]methyl}-2-oxo-1-oxa-3,8-diazaspiro[4.5]dec-3-yl)benzoic acid, TFA salt] | 1.33 nM
COc1ccc2c(CN3CCC4(CC3)CN(c3ccc(C(=O)O)cc3)C(=O)O4)nn(C(C)C)c2c1 [Example 6-6, 4-(8-{[6-Methoxy-1-(propan-2-yl)-1H-indazol-3-yl]methyl}-2-oxo-1-oxa-3,8-diazaspiro[4.5]dec-3-yl)benzoic acid, TFA salt] | 68.1 nM
CC1(C)CC(C)(C)c2cc(CN3CCC4(CC3)CN(c3ccc(C(=O)O)cc3)C(=O)O4)ccc2O1 [Example 5-11, 4-{2-Oxo-8-[(2,2,4,4-tetramethyl-3,4-dihydro-2H-chromen-6-yl)methyl]-1-oxa-3,8-diazaspiro[4.5]dec-3-yl}benzoic acid, TFA salt] | 14 nM
CCOc1nn(C(C)(C)C)cc1CN1CCC2(CC1)CN(c1ccc(C(=O)O)cc1)C(=O)O2 [Example 1-36, 4-{8-[(1-tert-Butyl-3-ethoxy-1H-pyrazol-4-yl)methyl]-2-oxo-1-oxa-3,8-diazaspiro[4.5]dec-3-yl}benzoic acid, TFA salt] | 509 nM
CCOc1cc(CN2CCC3(CC2)CN(c2ccc(C4(C(=O)O)CC4)cc2)C(=O)O3)cc(OCC)c1-c1ccc(F)cc1 [Example 3-10, 1-(4-{8-[(2,6-Diethoxy-4′-fluorobiphenyl-4-yl)methyl]-2-oxo-1-oxa-3,8-diazaspiro[4.5]dec-3-yl}phenyl)cyclopropanecarboxylic acid, TFA salt] | 8.41 nM
CCOc1cc(CN2CCC3(C2)CN(c2ccc(C(=O)O)cc2)C(=O)O3)cc(OCC)c1-c1ccc(F)cc1 (stereo not drawn) [Example 2-16, 4-{7-[(2,6-Diethoxy-4′-fluorobiphenyl-4-yl)methyl]-2-oxo-1-oxa-3,7-diazaspiro[4.4]non-3-yl}benzoic acid, TFA salt] | 5.63 nM
COc1ccc(-c2nn(C(C)(C)C)cc2CN2CCCC3(CC2)CN(c2ccc(C(=O)O)cc2)C(=O)O3)cc1 (stereo not drawn) [Example 2-14, 4-(8-{[1-tert-Butyl-3-(4-methoxyphenyl)-1H-pyrazol-4-yl]methyl}-2-oxo-1-oxa-3,8-diazaspiro[4.6]undec-3-yl)benzoic acid, TFA salt] | 26.8 nM
O=C(O)c1ccc(N2CC3(CCN(Cc4nc(-c5ccccc5)oc4-c4cc(F)c(F)cc4F)CC3)OC2=O)cc1 [Example 6-30, 4-(2-Oxo-8-{[2-phenyl-5-(2,4,5-trifluorophenyl)-1,3-oxazol-4-yl]methyl}-1-oxa-3,8-diazaspiro[4.5]dec-3-yl)benzoic acid, TFA salt] | 89.9 nM
CC(C)(C)n1cc(CN2CCCC3(CC2)CN(c2ccc(C(=O)O)cc2)C(=O)O3)c(-c2ccc(F)c(F)c2F)n1 (stereo not drawn) [Example 2-11, 4-(8-{[1-tert-Butyl-3-(2,3,4-trifluorophenyl)-1H-pyrazol-4-yl]methyl}-2-oxo-1-oxa-3,8-diazaspiro[4.6]undec-3-yl)benzoic acid, TFA salt] | 207 nM
CC(C)(C)n1cc(CN2CCC3(CC2)CN(c2ccc(C(=O)O)cc2)C(=O)O3)c(-c2ccc(F)c(F)c2F)n1 [Example 1-1, 4-(8-{[1-tert-Butyl-3-(2,3,4-trifluorophenyl)-1H-pyrazol-4-yl]methyl}-2-oxo-1-oxa-3,8-diazaspiro[4.5]dec-3-yl)benzoic acid, TFA salt] | 2.23 nM
